# In US20110183336A1, “Method to Predict Responsiveness of Breast Cancer to Polyamine-Type Chemotherapy” (THE REGENTS OF THE UNIVERSITY OF CALIFORNIA, priority 2007, published 2011):
# Legend:
# Format in all cases: cell-based, human
# HCC70 cells = test: BrdU incorporation and cell cycle distribution; conditions: select sensitive cell lines except T47D (FIG. 4: HCC70); 0.3, 10 and 300 uM; 48 and 72 hrs
# Method: FIGS. 4A and 4B. Effect of CGC-11047 on HCC70 cells with respect to cell cycle and apoptosis. In FIG. 4A, cells were treated for 72 hours with 0, 0.3, 10, or 100 μM CGC-11047. Shown are percentage of the cell population is G0-G1, S, or G2-M phase of cell growth. In FIG. 4B, cells were treated for 42, 48, or 72 hours with 0.3, 10, or 300 μM CGC-11047. Shown is the caspase activity (apoptosis) of treated cells within each condition compared to untreated controls.
# (§1) BrdU cell staining and labeling: After incubation of cells with CGC-11047 at specified concentrations for 24, 48, and 72 hours, cells were pulsed with a final BrdU concentration of 10 uM for 30 minutes. Cells were then fixed with −20° C. 70% ethanol overnight. Fixed cells were incubated with 2N HCl for 5-7 minutes to denature DNA. Cell were then rinsed with 1× PBS to neutralize HCl.
# (§2) Cells were incubated with primary donkey anti-BrdU antibody (diluted 1:100 in 0.5% PBS-tween20) for 1 hour then rinsed well with 0.5% PBS-tween20. Cells were incubated with Hoechst 33642 (diluted 1:2000) and secondary anti-donkey antibody (diluted 1:500) for 45 minutes and washed well with PBS-tween. […]
# (§3) Select sensitive cell lines were treated with CGC-11047 at 0.3, 10 and 300 uM. BrdU incorporation was measured and cell cycle distribution was analyzed at 48 and 72 hrs. Apoptosis was measured using the Promega Caspase Glo 3/7 assay.
# T47D cells = test: BrdU incorporation and cell cycle distribution; conditions: T47D (FIG. 5); 0.3, 10 and 300 uM; 48 and 72 hrs
# Method: FIGS. 5A and 5B. Effect of CGC-11047 on T47D cells with respect to cell cycle and apoptosis. In FIG. 5A, cells were treated for 72 hours with 0, 0.3, 10, or 100 μM CGC-11047. Shown are percentage of the cell population is G0-G1, S, or G2-M phase of cell growth. In FIG. 5B, cells were treated for […], 48, or 72 hours with 0.3, 10, or 300 μM CGC-11047. Shown is the caspase activity (apoptosis) of treated cells within each condition compared to untreated controls.
# as §1, §2, §3
# MDAMB415 = test: Cell growth inhibition assay (Cell Titer Glo); conditions: MDAMB415, Luminal, 72 h
# Method: (§4) Cell culture: Breast cell lines were obtained from the ATCC and from collections developed in the laboratories of Drs. Steve Ethier and Adi Gazdar.
# (§5) Cell growth inhibition assay and data analysis: Cells were plated at proper density in 96-well plates such that they would remain in log growth at the end of assay time. The cells were allowed to attach overnight before being exposed to CGC-11047 for 72 h. Drugs were dissolved in water as 100 mM stock. For the dose response study, a set of 9 doses from 5×10^−3 to 1.3×10^−8 M (final concentration) in 1:5 serial dilution were added in triplicate wells. The final DMSO concentration in the treated well was 0.3% or less. The cell growth was determined using Cell Titer Glo (CTG) assay (CellTiter-Glo Luminescent Cell Viability Assay, Promega, Madison, Wis.), with slight modification form manufacturer's protocol, at day 0 (time when drug was added) and at day 3 of drug exposure. Briefly, CTG reagent was diluted with PBS (1:1, volume: volume) and the culture media was removed from the 96-well plate prior to adding 50 μl per well of the diluted CTG reagent. Luminescence from the assay was recorded using BIO-TEK FLx800.
# (§6) Data calculations were made according to the method described by the NCI/NIH DTP Human Tumor Cell Line Screen Process (http://dtp.nci.nih.gov/branches/btb/ivclsp.html) and as described previously (Monks, A et al., JNCI 83:757-766, 1991). The percent growth curve is calculated as [(T−T0)/(C−T0)]×100, where T0 is the cell count at day 0, C is the vehicle control (e.g. 0.3% DMSO without drug) cell count at day 3, and T is the cell count at the test concentration. The GI50 and TGI value are determined as the drug concentration that results in a 50% and 0% growth at 72 h drug exposure. LC50 is calculated as [(T−T0)/T0]×100=−50, when T<T0.
# MDAMB436 = test: Cell growth inhibition assay (Cell Titer Glo); conditions: MDAMB436, Basal B, 72 h
# Method: as §4, §5, §6
# MDAMB175VII = test: Cell growth inhibition assay (Cell Titer Glo); conditions: Luminal, 72 h
# Method: as §4, §5, §6
# Hs578T = test: Cell growth inhibition assay (Cell Titer Glo); conditions: Basal B, 72 h
# Method: as §4, §5, §6
# HCC2185 = test: Cell growth inhibition assay (Cell Titer Glo); conditions: HCC2185, Luminal, 72 h
# Method: as §4, §5, §6
# HCC38 = test: Cell growth inhibition assay (Cell Titer Glo); conditions: HCC38, Basal B, 72 h
# Method: as §4, §5, §6
# SUM185PE = test: Cell growth inhibition assay (Cell Titer Glo); conditions: Luminal, 72 h
# Method: as §4, §5, §6
# MDAMB453 = test: Cell growth inhibition assay (Cell Titer Glo); conditions: MDAMB453, Luminal, 72 h
# Method: as §4, §5, §6
# MDAMB361 = test: Cell growth inhibition assay (Cell Titer Glo); conditions: MDAMB361, Luminal, 72 h
# Method: as §4, §5, §6
# SUM159PT = test: Cell growth inhibition assay (Cell Titer Glo); conditions: Basal B, 72 h
# Method: as §4, §5, §6
# BT549 = test: Cell growth inhibition assay (Cell Titer Glo); conditions: BT549, Basal B, 72 h
# Method: as §4, §5, §6
# HCC1419 = test: Cell growth inhibition assay (Cell Titer Glo); conditions: HCC1419, Luminal, 72 h
# Method: as §4, §5, §6
# MCF7 = test: Cell growth inhibition assay (Cell Titer Glo); conditions: MCF7, Luminal, 72 h
# Method: as §4, §5, §6
smiles,measurement,setting,value
CCNCCCNC/C=C\CNCCCNCC [CGC-11047],cell cycle distribution / BrdU incorporation,HCC70 cells,"growth inhibition is mainly caused by the delay in cell cycle, a G1 arrest"
same,cell cycle distribution / BrdU incorporation,T47D cells,very little changes in the cell cycle
same,GI50,"MDAMB415; Homo sapiens, MDA-MB-415",20 µM
same,TGI,MDAMB415,100 µM
same,GI50,"MDAMB436; Homo sapiens, MDA-MB-436",1000 µM
same,TGI,MDAMB436,3000 µM
same,GI50,"MDAMB175VII; Homo sapiens, MDA-MB-175-VII",1000 µM
same,TGI,MDAMB175VII,2000 µM
same,TGI,Hs578T,500 µM
same,GI50,"Hs578T; Homo sapiens, Hs-578T",0.4 µM
same,TGI,HCC2185,500 µM
same,GI50,HCC2185; Homo sapiens,90 µM
same,TGI,HCC38,300 µM
same,GI50,HCC38; Homo sapiens,40 µM
same,GI50,SUM185PE; Homo sapiens,300 µM
same,TGI,SUM185PE,>500 µM
same,GI50,"MDAMB453; Homo sapiens, MDA-MB-453",500 µM
same,TGI,MDAMB453,>500 µM
same,GI50,"MDAMB361; Homo sapiens, MDA-MB-361",600 µM
same,TGI,MDAMB361,2000 µM
same,TGI,SUM159PT,3000 µM
same,GI50,"SUM159PT; Homo sapiens, SUM-159-PT",200 µM
same,TGI,BT549,1300 µM
same,GI50,"BT549; Homo sapiens, BT-549",1 µM
same,TGI,HCC1419,31 µM
same,GI50,HCC1419; Homo sapiens,7 µM
same,GI50,MCF7; Homo sapiens,90 µM
same,TGI,MCF7,1200 µM
